Assay results from patent publication US20140349924A1 (Novo Nordisk A/S, priority 2007, published 2014).

Columns and labels:
[1] = 293.2 Kelvin; static electric fields or relatively low frequencies; cited from earlier work
[2] = freshly excised rat gut sacs (small intestine) incubated in culture medium pH 7.4; conditions: 37° C, up to 2 h
[3] = freeze dried from aqueous solutions with pH moved below the isoelectric point; cited from earlier work

CO [Methanol]
Dielectricity constant, ε* [1]: 33.0

Asp^B28 human insulin
fragment found [2]: degradation product (peak ˜5218), 2 h

lysozyme: lysozyme lyophilized from aqueous solution, literature example (Klibanov et al)
Solubility in 1,5 pentanediol [3]: markedly increased
